Patent US7205140B2, “Nucleotide sequence for creatinine deiminase and method of use” (CampusGen GmbH, priority 2003, dated 2007)

B1: recombinant creatinine deiminase: creatinine deiminase (EC 3.5.4.21) from Tissierella creatinini, heterologously expressed in E. coli; 406 amino acid polypeptide (protein, listed as Tissierella creatinini)
chain: MMKKFINAKIYKNNEATEILVEDGKIKEIGNNLADCKEVIDLGGKMVTPPYVDPHLHLDYVYTLAELGKTGAGSGTLFEAIEMWPVFKKTLTVESVKKLALKGVMDEVSQGVQHIRTHIDVTDPKFTGLKAMLEMKEELKDIVDIQIVSFPQQGMYTYKGGRELVEEALKMGADVVGGIPHYEPAREYGEMSVKATVELAMKYDKLIDVHCDETDDPQARFIELLNALVYLEGYGAKTSASHTCSFGSADDSYAYRMIDLFKKSKINFISNPTENAYLQGRHDTYPKRRGLTRVKEFMEHGINVAFAQDSINDPWYPMGNGNMMNILDNGIHLAQIMSPQDIEKDLDLITYNGARCLNIQDKYLLEVGKDSNFIVLNGDSPFDVIRNRANVLACVRKGEFYLSKNQ

Key:
[1] = system: purified heterologously expressed creatinine deiminase from Tissierella creatinini; test: Interference studies: compound added to the reaction mixture, creatinine deiminase activity determined (coupled optical test); format: biochemical; conditions: for Maximum concentration without interference: compound added to standard reaction mixture, creatinine deiminase activity
Excerpt: A technique for specifically measuring the creatinine concentration of a sample includes a simple indicator reaction step is provided, whereby no complicated auxiliary measurement reactions are necessary. […] Therefore, the subject creatinine deiminase polypeptide specifically and preferentially interacts with creatinine also in presence of other substrates with high specificity, without undue interference from other molecules which would otherwise compromise the accuracy of the measured value for the creatinine concentration in the sample.
(§1) The activity of the purified recombinant enzyme was determined using a modified enzymatic method developed by Bergmeyer (Bergmeyer, H. U. (1985), Methods of enzymatic analysis 8: 488–507). This method includes the measuring of free ammonia produced during a creatinine deiminase reaction via a coupled optical test, by measuring the […] of NADH consumed by the free ammonia at […] and/or 365 nm. The initial reaction comprised the following concentrations in a final volume of 0.6 ml: TEA buffer 0.11 mol/l, pH 8.6; creatinine 1.5 mmol/l; ADP 1.11 mmol/l; DTE 1 mmol/l; NADH 0.11 mmol/l; 2-oxoglutarate 11 mmol/l; glutamate dehydrogenase 8 U/ml. After incubating the reaction components (5 min at 37° C.), 0.01 ml of the purified recombinant enzyme was transferred to a cuvette and placed into a photometer for observing the extinction acceptance reaction at 340 nm. One enzyme unit was determined to catalyze the degrading of 1 μmol creatinine/min at 37° C.
A series of interference studies was performed using the purified and expressed creatinine deiminase polypeptide in the presence of the different serum compounds. The compound was provided to the standard reaction mixture and the creatinine deiminase activity was determined using the methods described above.

[2] = Storage stability of the purified enzyme in dialysis buffer; format: physicochemical; conditions: in the dialysis buffer for several months
Procedure: These samples were dialyzed using several rounds of fresh buffer (0.05 mol/l potassium phosphate, pH 7.65/glycerine, 1:2 v/v) at 4° C. until ammonia could no longer be detected.
The purified enzyme remained stable in the dialysis buffer for several months, experiencing a loss of activity of 9.1%. The optimal pH value for the purified enzyme, when suspended in phosphate and TEA buffers, was within the range of 8.5–8.75, with maximum activity measured at 47° C.

[3] = Enzyme activity of recombinant creatinine deiminase (coupled optical test / Jaffé method); format: biochemical
Procedure: The heterologous expression of an active creatinine deiminase derived from T. creatinini in E. coli (from the recombinant cell extract) was analyzed using gel electrophoresis (FIG. 8) and by determining the enzymatic activity in the cell-free raw extracts. […] Additionally, a band for the purified creatinine deiminase appeared at this same distance of 300 kDa (see FIG. 8, lanes 3 and 5), and likewise a similar band appeared in the raw extract of T. creatinini (FIG. 8, lane 2). The predicted size for creatinine deiminase (300 kDa) is well within range of the known value (288 kDa) as determined by Gottschalk et al. 1991 (supra). The specific activity of the recombinant creatinine deiminase in the cell-free extract was determined to be about 10.2 U/mg.
Heterologous sequences expressing creatinine deiminase (EC 3.5.4.21), as derived from T. creatinini, were also purified according to methods described by Gottschalk et al. 1991 (supra). The creatinine deiminase protein was purified from 5 g of cells using ammonium sulphate precipitation and chromatography to apparent homogeneity using phenylsepharose and DEAE-Sepharose CL6B (see FIG. 9). The specific activity of the purified recombinant enzyme was determined to be 1423 U/mg (see Table 2). The enzyme was suspended in a potassium phosphate buffer (KPP; pH 7.65, 50% Glycerin) and stored at −20° C. in. The purification steps are described as follows:
as §1

Molecule | Maximum concentration without interference [1] | other results
Nc1nc(=O)[nH]cc1F [5-Fluorocytosine] | 1000 mg/L | 
CC(=O)O [Acetic acid] | 200 mg/L | 
CC(=O)CC(=O)O [Acetoacetate] | 7.8 mg/L | 
CC(C)=O [Acetone] | 2000 mg/L | 
C[C@H](CS)C(=O)N1CCC[C@H]1C(=O)O [Captopril] | 83 mg/L | 
CN(CC(=O)O)C(=N)N [Creatine] | 2000 mg/L | 
Nc1cc[nH]c(=O)n1 [Cytosine] | 2000 mg/L | concentration without any interference ([1]; as stated in the text for Table 1): up to 2000 mg/ml
CNC[C@H](O)c1ccc(O)c(O)c1 [Epinephrine] | 0.05 mg/L | 
NS(=O)(=O)c1cc(C(=O)O)c(NCc2ccco2)cc1Cl [Fuoresemide] | 4433 mg/L | 
N[C@@H](Cc1c[nH]cn1)C(=O)O [Histidine] | 2250 mg/L | 
NC[C@H](O)c1ccc(O)c(O)c1 [Norepinephrine] | 1.5 mg/L | 
O=C(O)C(=O)O [Oxalic acid] | 400 mg/L | 
O=C(O)c1cc(/N=N/c2ccc(S(=O)(=O)Nc3ccccn3)cc2)ccc1O [Salazosulphapyridine] | 550 mg/L | 
Cc1cc(NS(=O)(=O)c2ccc(N)cc2)no1 [Sulphamethoxazole] | 500 mg/L | 
COc1cc(Cc2cnc(N)nc2N)cc(OC)c1OC [Trimethoprime] | 46 mg/L | 
CN[C@H](CC(C)C)C(=O)N[C@H]1C(=O)N[C@@H](CC(N)=O)C(=O)N[C@H]2C(=O)N[C@H]3C(=O)N[C@H](C(=O)N[C@H](C(=O)O)c4cc(O)cc(O)c4-c4cc3ccc4O)[C@H](O)c3ccc(c(Cl)c3)Oc3cc2cc(c3O[C@@H]2O[C@H](CO)[C@@H](O)[C@H](O)[C@H]2O[C@H]2C[C@](C)(N)[C@H](O)[C@H](C)O2)Oc2ccc(cc2Cl)[C@H]1O [Vancomycin] | 288 mg/L | 
C[C@](N)(Cc1ccc(O)c(O)c1)C(=O)O [α-Methyl-Dopa] | 107 mg/L | 
Hemoglobin | 0 mg/L | 
B1 |  | loss of activity [2]: 9.1%; Km ([3]; Lineweaver Burke plot analysis): 1.1 mM; specific activity of the purified recombinant enzyme ([3]; after phenylsepharose and DEAE-Sepharose CL6B): 1423 U/mg; specific activity in the cell-free extract ([3]; cell-free extract of E. coli DH5α/pKT1): about 10.2 U/mg; optimal pH value ([3]; in phosphate and TEA buffers): 8.5–8.75; Vmax ([3]; per protein): 1467 U/mg; Vmax ([3]; this enzyme preparation): 8.8 U/ml
